From ChEMBL document CHEMBL3885861, “Open TG-GATES”

Organism: Rattus norvegicus
Assay: Open TG-GATES - Regimen: Daily Repeat
Type: toxicity, organism-based, Sprague-Dawley
Parameters: regimen Daily Repeat, gender Male, age 6 weeks
Conditions: in vivo, po, 0 mg/kg, route gavage, dose level Control; for APTT / Bas / Eos / Fbg / Hb / Ht / Lym / MCH / MCHC / MCV / Mono / Neu / PT / Plat / RBC / Ret / WBC: tissue Blood
[1] = 72 h, tissue Kidney, time 3 day
[2] = 72 h, tissue Plasma, time 3 day

O=C(OC[C@H]1O[C@@H](OC(=O)c2cc(O)c(O)c(OC(=O)c3cc(O)c(O)c(O)c3)c2)[C@H](OC(=O)c2cc(O)c(O)c(OC(=O)c3cc(O)c(O)c(O)c3)c2)[C@@H](OC(=O)c2cc(O)c(O)c(OC(=O)c3cc(O)c(O)c(O)c3)c2)[C@@H]1OC(=O)c1cc(O)c(O)c(OC(=O)c2cc(O)c(O)c(O)c2)c1)c1cc(O)c(O)c(OC(=O)c2cc(O)c(O)c(O)c2)c1 [TANNIC ACID]
TERMINAL_BW (72 h, time 3 day): 216 g
APTT (72 h, time 3 day): 17.1 s
Bas (72 h, time 3 day): 0%
Eos (72 h, time 3 day): 1%
Fbg (72 h, time 3 day): 245.4 mg/dL
Hb (72 h, time 3 day): 13.2 g/dL
Ht (72 h, time 3 day): 39.3%
Lym (72 h, time 3 day): 77.6%
MCH (72 h, time 3 day): 21.8 pg
MCHC (72 h, time 3 day): 33.4%
MCV (72 h, time 3 day): 65.2 fL
Mono (72 h, time 3 day): 6.4%
Neu (72 h, time 3 day): 15%
PT (72 h, time 3 day): 11.7 s
Plat (72 h, time 3 day): 118.4 x10_4/uL
RBC (72 h, time 3 day): 603.8 x10_4/ul
Ret (72 h, time 3 day): 8.3%
WBC (72 h, time 3 day): 101.4 x10_2/uL
KIDNEY_L [1]: 0.9 g
KIDNEY_R [1]: 1 g
KIDNEY_TOTAL [1]: 1.9 g
LIVER (72 h, tissue Liver, time 3 day): 10.5 g
A/G [2]: 2.1
ALP [2]: 883.4 IU/L
ALT [2]: 36.2 IU/L
AST [2]: 62.2 IU/L
BUN [2]: 18 mg/dL
CRE [2]: 0.5 mg/dL
Ca [2]: 10.9 mg/dL
Cl [2]: 104.2 meq/L
DBIL [2]: 0 mg/dL
GLC [2]: 202 mg/dL
IP [2]: 8 mg/dL
K [2]: 4.8 meq/L
LDH [2]: 62.4 IU/L
Na [2]: 139.6 meq/L
PL [2]: 146.8 mg/dL
RALB [2]: 3.8 g/dL
TBIL [2]: 0.3 mg/dL
TC [2]: 75.2 mg/dL
TG [2]: 112.8 mg/dL
TP [2]: 5.7 g/dL
gamma-GTP [2]: 1 IU/L
TERMINAL_BW ([…], time 7 day): 253.1 g
TERMINAL_BW ([…], time 14 day): 306.2 g
TERMINAL_BW ([…], time 28 day): 398.3 g
APTT ([…], time 7 day): 16.7 s
Bas ([…], time 7 day): 0%
Eos ([…], time 7 day): 1%
Fbg ([…], time 7 day): 219.4 mg/dL
Hb ([…], time 7 day): 12.8 g/dL
Ht ([…], time 7 day): 38.2%
Lym ([…], time 7 day): 77.8%
MCH ([…], time 7 day): 21.4 pg
MCHC ([…], time 7 day): 33.5%
MCV ([…], time 7 day): 63.9 fL
Mono ([…], time 7 day): 6.8%
Neu ([…], time 7 day): 14.4%
PT ([…], time 7 day): 11.1 s
Plat ([…], time 7 day): 101 x10_4/uL
RBC ([…], time 7 day): 598 x10_4/ul
Ret ([…], time 7 day): 6.8%
WBC ([…], time 7 day): 131.8 x10_2/uL
APTT ([…], time 14 day): 16 s
Bas ([…], time 14 day): 0%
Eos ([…], time 14 day): 1.2%
Fbg ([…], time 14 day): 251.8 mg/dL
Hb ([…], time 14 day): 13.9 g/dL
Ht ([…], time 14 day): 41.6%
Lym ([…], time 14 day): 78%
MCH ([…], time 14 day): 20.7 pg
MCHC ([…], time 14 day): 33.4%
MCV ([…], time 14 day): 62.1 fL
Mono ([…], time 14 day): 7%
Neu ([…], time 14 day): 14%
PT ([…], time 14 day): 11.5 s
Plat ([…], time 14 day): 125.4 x10_4/uL
RBC ([…], time 14 day): 669.8 x10_4/ul
Ret ([…], time 14 day): 5.3%
WBC ([…], time 14 day): 128.6 x10_2/uL
APTT ([…], time 28 day): 17.3 s
Bas ([…], time 28 day): 0%
Eos ([…], time 28 day): 1%
Fbg ([…], time 28 day): 229 mg/dL
Hb ([…], time 28 day): 14.7 g/dL
Ht ([…], time 28 day): 43.6%
